The record followed here is patent US12043622B2, “Crystal form of compound for inhibiting the activity of CDK4/6 and use thereof” (Betta Pharmaceuticals Co., Ltd., priority 2019, dated 2024).

The nature of data set [1]: Stability of the crystal form, checked by XRD. Format: physicochemical. On the procedure: In one embodiment of the invention, XRD analysis of the small sample (batch number: 1072P04-A14S01) was performed by SoliPharmausing Bruker D8 Advance Diffractometer.
Data set [2] can be described thus: Solubility in water at room temperature. It is filed as physicochemical. The conditions noted are these: for Classification of solubility: classes of the Chinese Pharmacopoeia (2015); for solubility: thermodynamic from solid.
Data set [3] deals with CDK2/cyclin E (Homo sapiens, UniProt P24941). The experiment in a line: CDK subtype selectivity, 33P-ATP radiometric kinase assay. It is filed as biochemical. From the text: (§1) The mechanism of this method is shown in formula (IV).
(§2) Data was processed with Prism4 Software (GraphPad), and the curve fitting formula was: Y=Bottom+(Top−Bottom)/(1+10^((Log IC50−X)*HillSlope)); wherein, Y is percent inhibition (%); X is logarithm of concentration of the inhibitor.

Data set [4] deals with CDK9/cyclin T1 (Homo sapiens, UniProt P50750). Described as above. Format: biochemical.
Description: as §1, §2

The nature of data set [5]: Dynamic moisture sorption (DVS). Format: physicochemical. From the text:
The instruments and methods of Dynamic moisture adsorption in the present invention was shown in table 7, the results of DVS was shown in table 8.

Data set [6] can be described thus: Crystal form long-term stability, impurities by HPLC. The following applies: for Content > 0.1% Number of unknown impurities (s) / Maximum single impurity content (%) / Total impurity content (%): 25° C.±2° C., RH 60%±10%, HPLC. Format: physicochemical.
Data set [7] in a line: Pharmacokinetic experiment in SD rats, plasma by LC-MS/MS. Format: in vivo. The following applies: both sexes, Sprague-Dawley (SD), rat, PO, 30 mg/kg. The procedure:
A total of 12 SD rats were divided into two groups, 6 in each group, each half of male and female.
In the above plasma sample, protein was precipitated by acetonitrile, the supernatant was diluted 3 times with water, and 5 μL was detected by LC-MS/MS, the results of experiment was shown in table 10: […]

Data set [8] is described as follows: Solid form conversion of amorphous and metastable forms. It is filed as physicochemical. The following applies: for Solid form stability under moisture: water/moisture, room temperature.

Like-named read-outs stand apart in the source and are kept apart here.

Sequence of CDK9/cyclin T1 (P50750 whole entry, species assumed): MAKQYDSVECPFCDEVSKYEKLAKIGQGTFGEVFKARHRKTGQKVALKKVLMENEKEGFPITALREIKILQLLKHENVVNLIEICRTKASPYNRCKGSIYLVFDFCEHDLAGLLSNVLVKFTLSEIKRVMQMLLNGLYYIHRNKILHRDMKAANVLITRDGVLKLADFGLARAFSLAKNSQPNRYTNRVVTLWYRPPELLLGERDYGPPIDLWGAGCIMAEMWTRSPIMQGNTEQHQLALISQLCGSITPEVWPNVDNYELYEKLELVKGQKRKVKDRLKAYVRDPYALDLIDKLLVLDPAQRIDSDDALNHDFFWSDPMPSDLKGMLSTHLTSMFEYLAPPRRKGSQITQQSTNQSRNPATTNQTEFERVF
Sequence of CDK9/cyclin T1 (O60563 whole entry partner, species assumed): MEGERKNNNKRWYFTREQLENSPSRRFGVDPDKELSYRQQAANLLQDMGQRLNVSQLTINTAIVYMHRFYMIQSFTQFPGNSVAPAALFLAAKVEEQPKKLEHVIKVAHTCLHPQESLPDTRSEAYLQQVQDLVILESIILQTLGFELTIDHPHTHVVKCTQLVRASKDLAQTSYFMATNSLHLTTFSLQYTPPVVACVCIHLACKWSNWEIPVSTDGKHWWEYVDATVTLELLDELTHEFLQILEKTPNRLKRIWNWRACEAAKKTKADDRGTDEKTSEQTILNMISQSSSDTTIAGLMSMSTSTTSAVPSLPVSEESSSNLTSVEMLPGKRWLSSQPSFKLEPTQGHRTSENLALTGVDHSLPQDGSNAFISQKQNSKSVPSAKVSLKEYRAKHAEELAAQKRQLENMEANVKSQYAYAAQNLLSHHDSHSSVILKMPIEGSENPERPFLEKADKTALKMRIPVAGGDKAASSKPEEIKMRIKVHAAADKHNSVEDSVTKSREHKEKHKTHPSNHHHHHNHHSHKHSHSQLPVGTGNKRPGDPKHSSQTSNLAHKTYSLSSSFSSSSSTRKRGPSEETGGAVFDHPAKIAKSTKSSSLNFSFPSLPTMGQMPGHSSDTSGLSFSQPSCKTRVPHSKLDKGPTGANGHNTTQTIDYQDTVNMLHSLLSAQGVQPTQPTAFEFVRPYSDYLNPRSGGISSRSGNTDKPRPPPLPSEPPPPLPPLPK

As to `CCN1CCN(Cc2ccc(Nc3ncc(F)c(-c4cc(F)c5nc6n(c5c4)[C@H](C)CCC6)n3)nc2)CC1.CS(=O)(=O)O` [crystal form D of compound III], the “XRD pattern after storage (crystal form stability)” value (shortened to “XRD pattern after storage”) in data set [1] (25° C., 60% RH, 10 days) was “changed”; in data set [1] (40° C., 75% RH, 10 days), “changed”; in data set [1] (dried at 80° C., 24 h, listed as crystal form D of the compound III), “unchanged”. Also, the Classification of solubility result in data set [2] is “soluble”. The same compound showed a solubility in data set [2] of 50 to 100 mg/mL.
Regarding `CCN1CCN(Cc2ccc(Nc3ncc(F)c(-c4cc(F)c5nc6n(c5c4)[C@H](C)CCC6)n3)nc2)CC1` [compound 2b], the IC50 in data set [3] (read-out: IC50 CDK2/cyclin E) was 441 nM; in data set [4] (read-out: IC50 CDK9/cyclin T1) it was 649 nM.
As for `CCN1CCN(Cc2ccc(Nc3ncc(F)c(-c4cc(F)c5nc6n(c5c4)[C@H](C)CCC6)n3)nc2)CC1.CS(=O)(=O)O` [crystal form F of compound III], the “XRD pattern after storage” value in data set [1] (25° C., 60% RH, 10 days) is “changed”; in data set [1] (40° C., 75% RH, 10 days), “changed”; in data set [1] (dried at 80° C., 24 h, listed as crystal form F the compound III), “changed”. Further, the “Weight change in the range of 0% RH-80% RH” value in data set [5] is 16.6%.
In the case of `CCN1CCN(Cc2ccc(Nc3ncc(F)c(-c4cc(F)c5nc6n(c5c4)[C@H](C)CCC6)n3)nc2)CC1.O=C(O)C(O)C(O)C(=O)O` [crystal form A of compound II], the “XRD pattern after storage” value in data set [1] (25° C., 60% RH, 10 days) was “not changed”; in data set [1] (25° C., 60% RH, 10 days, listed as crystal form A of the compound II) it was “unchanged”; in data set [1] (40° C., 75% RH, 10 days), “not changed”; in data set [1] (40° C., 75% RH, 10 days, listed as crystal form A of the compound II), “unchanged”; in data set [1] (dried at 80° C., 24 h), “not changed”; in data set [1] (dried at 80° C., 24 h, listed as crystal form A of the compound II), “unchanged”. The “Content > 0.1% Number of unknown impurities (s)” value (“Content > 0.1% Number” for short) in data set [6] (0 month), in data set [6] (3 month) and in data set [6] (18 month) was 0 each time. Moreover, the “Maximum single impurity content (%)” value in data set [6] (0 month) amounted to 0.05%; in data set [6] (3 month), 0.05%; in data set [6] (18 month), 0.06%. Moreover, the results for the “Total impurity content (%)” value in data set [6] (0 month), in data set [6] (3 month) and in data set [6] (18 month) were 0.10%, 0.13% and 0.21%, respectively. For the same compound, the “Amount of the impurities produced” value in data set [6] (after 18 months) is given as “less than 0.1%”. The Classification of solubility entry in data set [2] was “Readily-soluble”. The solubility in data set [2] is 100 to 200 mg/mL. This compound also gave an area under the curve AUC(0-t) in data set [7] of 47000 ng·h/mL.
For `CCN1CCN(Cc2ccc(Nc3ncc(F)c(-c4cc(F)c5nc6n(c5c4)[C@H](C)CCC6)n3)nc2)CC1.O=C(O)C(O)C(O)C(=O)O` [amorphous form of compound II], the “Solid form stability under moisture” value in data set [8] is recorded as “readily converted to the crystal form B of compound II”; in data set [8] (listed as amorphous form of Compound II) it was “readily forms Form B of Compound II”.
As for `CCN1CCN(Cc2ccc(Nc3ncc(F)c(-c4cc(F)c5nc6n(c5c4)[C@H](C)CCC6)n3)nc2)CC1.O=C(O)C(O)C(O)C(=O)O` [crystal form B of compound II], the “Weight change in the range of 0% RH-80% RH” value in data set [5] was found to be 5.5%. For the same compound, in data set [8] (heated to 180° C.), the “Solid form stability on heating” value is listed as “could be converted to crystal form A”.
With `CCN1CCN(Cc2ccc(Nc3ncc(F)c(-c4cc(F)c5nc6n(c5c4)[C@H](C)CCC6)n3)nc2)CC1` [compound I, (R)—N-(5-((4-ethylpiperazin-1-yl)methyl)pyridin-2-yl)-5-fluoro-4-(6-fluoro-1-methyl-1,2,3,4-tetrahydrobenzo[4,5]imidazo[1,2-a]pyridin-8-yl)pyrimidin-2-amine], in data set [6] (0 month), the “Content > 0.1% Number” value was determined as 0, the “Maximum single impurity content (%)” value is listed as 0.04% and the “Total impurity content (%)” value turned out to be 0.11%. For the same compound, in data set [6] (3 month), the “Content > 0.1% Number” value came to 0, the “Maximum single impurity content (%)” value came out at 0.10% and the “Total impurity content (%)” value amounted to 0.17%. For the same compound, in data set [6] (18 month), the “Maximum single impurity content (%)” value stood at 0.22% and the “Total impurity content (%)” value turned out to be 1.0%. In data set [2], the Classification of solubility entry was “Very little soluble” and the solubility is less than 1 mg/mL. This compound returned an AUC(0-t) in data set [7] of 27700 ng·h/mL. Further, in data set [3] (stated jointly for CDK1/2/7/9, read-out: IC50 for inhibiting CDK2), the IC50 was more than 400 nM. Further, the IC50 in data set [4] (stated jointly for CDK1/2/7/9, read-out: IC50 for inhibiting CDK9) was more than 400 nM.
On to `CCN1CCN(Cc2ccc(Nc3ncc(F)c(-c4cc(F)c5nc6n(c5c4)[C@H](C)CCC6)n3)nc2)CC1.CS(=O)(=O)O` [amorphous form of compound III], for which the “Solid form stability on scale-up” value in data set [8] (scaled up to 50 mg) is listed as “unstable”.

What is called solubility is the dissolved amount per volume that the medium holds. For orientation: AUC(0-t) means exposure summed from dosing to a finite time, without extrapolation to infinity. Read a high AUC(0-t) as high exposure.
